In the supplement of paper PMC3493320 one finds IC50 data, which are given here for 58 compounds.

One may read the IC50 as the midpoint of a concentration-inhibition curve. Read a low IC50 as greater potency in that assay.

The assay deals with NCI-H295R. The assay can be described thus: IC50 (antiproliferative, ATP content). The following applies: 48 h. In a few lines: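 Adrenocortical carcinoma cells were plated at 1500 per well in 1536-well plates in serum-free DMEM with ITS supplement, left overnight, then given library compounds by pin transfer at 8 final concentrations spanning 0.6 nM to 46 µM and held 48 h at 37 °C, 5% CO2. ATP was measured as CellTiter-Glo luminescence after 20 min at room temperature and scaled between vehicle and positive-control wells. A four-parameter logistic model was fitted to each series. The IC50 was taken from these fits, and compounds without a concentration response were recorded as above the top dose.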
In the case of `CN[C@@H]1[C@H](O)[C@H](NC)[C@H]2O[C@@]3(O)C(=O)C[C@@H](C)O[C@H]3O[C@@H]2[C@H]1O.Cl.Cl`, the IC50 is above 46 µM.

`CC(O)CO` (stereo not drawn) registered an IC50 above 46 µM.

`NC[C@@H]1O[C@H](O[C@H]2[C@@H](O)[C@H](O[C@@H]3[C@@H](O)[C@H](N)C[C@H](N)[C@H]3O[C@H]3O[C@H](CO)[C@@H](O)[C@H](O)[C@H]3N)O[C@@H]2CO)[C@H](N)[C@@H](O)[C@@H]1O.O=S(=O)(O)O` gave an IC50 above 46 µM.

With `O=C2N1[C@]([C@@]([H])2NC(C(C(OC)=CC=C3)=C3OC)=O)([H])SC(C)(C)[C@@H]1[C@@]([O-])=O.[Na+].O`, the IC50 was above 46 µM.

Take `Nc1ccc(S(=O)(=O)c2ccc(N)cc2)cc1`: the IC50 is above 46 µM.

With `OC(C)=O.NC(CNC([C@H](CCCNC(N)=N)N[C@]([C@@H]1CCCN1[C@]([C@H](CSSCCC(N[C@@H](CC4=CC=C(O)C=C4)C3=O)=O)NC([C@H](CC(N)=O)NC([C@@H](NC([C@@H](N3)CC2=CC=CC=C2)=O)CCC(N)=O)=O)=O)=O)=O)=O)=O`, the IC50 is above 46 µM.

Compound `O=C(O)C(Cl)(Cl)Cl` displayed an IC50 above 46 µM.

`CC12CC3CC(C)(C1)CC(N)(C3)C2` gave an IC50 above 46 µM.

`CCN(CC)CCNC(=O)c1ccc(N)cc1`: the IC50 is above 46 µM.

In turn, `Cc1cc(C(=O)O)c(C)n1-c1cccc(C(=O)O)c1.O=C1C[C@@H]2OCC=C3CN4CC[C@]56c7ccccc7N1[C@H]5[C@H]2[C@H]3C[C@H]46` gave an IC50 above 46 µM.

`CCCN(CCC)C(=O)C(CCC(=O)O)NC(=O)c1ccccc1` (stereo not drawn) returned an IC50 above 46 µM.

Consider `CN(C)C(=N)NC(=N)N.Cl`, for which the IC50 is above 46 µM.

In the case of `CCN(CC)CCN1C(=O)CN=C(c2ccccc2F)c2cc(Cl)ccc21`, the IC50 is above 46 µM.

Regarding `COc1ccccc1N1CCN(CCCNc2cc(=O)n(C)c(=O)n2C)CC1.Cl`, the IC50 was above 46 µM.

`CCOc1cc(CC(=O)N[C@@H](CC(C)C)c2ccccc2N2CCCCC2)ccc1C(=O)O` had an IC50 above 46 µM.

The compound `COc1ccc(C2CNC(=O)C2)cc1OC1CCCC1` (stereo not drawn) registered an IC50 above 46 µM.

As to `CC12CCC(CC1)C(C)(C)O2`, the IC50 was above 46 µM.

`CC(C)NC[C@@H](O)COc1cccc2ccccc12` registered an IC50 above 46 µM.

As for `CCCc1c(OCCCCc2nnn[nH]2)ccc(C(C)=O)c1O`, the IC50 was above 46 µM.

In turn, `CCOC(=O)C1=C(C)NC(C)=C(C(=O)OC)C1c1cccc(Cl)c1Cl` (stereo not drawn) registered an IC50 above 46 µM.

Regarding `[C@]23([C@](OC(c1occc1)=O)([C@H](C)C[C@H]2[C@H]5[C@]([C@H](C3)O)([C@@]\4(\C(=C/C(/C=C/4)=O)CC5)C)Cl)C(=O)CCl)C`, the IC50 was above 46 µM.

`CC(C)CCCC(C)CCCC(C)CCCCC(C)CCCC(C)CCCC(C)C` (stereo not drawn) returned an IC50 above 46 µM.

For `CC(C)(C)NCC(O)CSc1nc(-c2ccc(C(N)=O)s2)cs1.Cl` (stereo not drawn), the IC50 is above 46 µM.

`O=c1cc[nH]c(=O)[nH]1` displayed an IC50 above 46 µM.

With `Oc1cccc(O)c1O`, the IC50 is above 46 µM.

In the case of `CO/N=C(\C(=O)N[C@@H]1C(=O)N2C(C(=O)O)=C(CSc3cnns3)CS[C@H]12)c1csc(N)n1.Cl`, the IC50 was above 46 µM.

For the compound `OCc1ccccc1`, the concentration for half-maximal inhibition (IC50) was above 46 µM.

For the compound `C/C=C/C[C@@H](C)[C@@H](O)[C@H]1C(=O)N[C@@H](CC)C(=O)N(C)CC(=O)N(C)[C@@H](CC(C)C)C(=O)N[C@@H](C(C)C)C(=O)N(C)[C@@H](CC(C)C)C(=O)N[C@@H](C)C(=O)N[C@H](C)C(=O)N(C)[C@@H](CC(C)C)C(=O)N(C)[C@@H](CC(C)C)C(=O)N(C)[C@@H](C(C)C)C(=O)N1C`, the IC50 was above 46 µM.

For `COc1cc(-c2ccc(=O)[nH]n2)ccc1OC(F)F`, the IC50 is above 46 µM.

In the case of `O=C(CCN1CCN(CCO)CC1)N1c2ccccc2Sc2ccc(C(F)(F)F)cc21`, the IC50 was above 46 µM.

Take `CN1C(C(=O)Nc2ccccn2)=C(O)c2sccc2S1(=O)=O`: the IC50 was above 46 µM.

The compound `C/C(=C(\CCOC(=O)C(C)C)SS/C(CCOC(=O)C(C)C)=C(/C)N(C=O)Cc1cnc(C)nc1N)N(C=O)Cc1cnc(C)nc1N` came in with an IC50 above 46 µM.

`CCCCC[C@H](O)/C=C/[C@@H]1[C@@H](C/C=C\CCCC(=O)O)[C@@H](O)C[C@H]1O.COC(N)(CO)CO`: the IC50 is above 46 µM.

Take `Cc1[nH]c(=O)c(C#N)cc1-c1ccncc1`: the IC50 is above 46 µM.

With `CCC1(c2ccccc2)CCC(=O)NC1=O` (stereo not drawn), the IC50 is above 46 µM.

The compound `Nc1c2c(nc3ccccc13)CCCC2O.O=C(O)/C=C\C(=O)O` (stereo not drawn) came in with an IC50 above 46 µM.

As to `NC[C@H](O)c1ccc(O)c(O)c1.O=C(O)C(O)C(O)C(=O)O.O=C(O)C(O)C(O)C(=O)O`, the IC50 is above 46 µM.

`CC(=O)O.CNC(=N)NCCC[C@H](N)C(=O)O` yielded an IC50 above 46 µM.

`O=C([O-])c1cc(N=Nc2ccc(O)c(C(=O)[O-])c2)ccc1O.[Na+].[Na+]` had an IC50 above 46 µM.

For `Cc1nc(C)c(Cl)c(O)c1Cl`, the IC50 was above 46 µM.

For `COc1ccc(C(=O)c2ccccc2O)c(O)c1`, the IC50 is above 46 µM.

With `O=C(CSC#N)O[C@H]2[C@]1(C)CC[C@H](C2)[C@](C)1C`, the half-maximal inhibitory concentration (IC50) was above 46 µM.

Consider `CN[C@@H]1[C@H](O[C@H]2[C@H](O[C@H]3[C@H](O)[C@@H](O)[C@H](NC(=N)N)[C@@H](O)[C@@H]3NC(=N)N)O[C@@H](C)[C@]2(O)CO)O[C@@H](CO)[C@H](O)[C@H]1O.CN[C@@H]1[C@H](O[C@H]2[C@H](O[C@H]3[C@H](O)[C@@H](O)[C@H](NC(=N)N)[C@@H](O)[C@@H]3NC(=N)N)O[C@@H](C)[C@]2(O)CO)O[C@@H](CO)[C@H](O)[C@H]1O.O=S(=O)(O)O.O=S(=O)(O)O.O=S(=O)(O)O`, for which the IC50 was above 46 µM.

`CC(C)NC(C)C` had an IC50 above 46 µM.

With `O[C@@H]([C@H](C)NC)[C@@]1=CC=CC=C1.Cl`, the IC50 is above 46 µM.

`C(N3C2)(SCC3)=N[C@H]2[C@@]1=CC=CC=C1.Cl`: the half-maximal inhibitory concentration (IC50) is above 46 µM.

`CC(C)Cn1cnc2c1c(=O)n(C)c(=O)n2C`: the IC50 is above 46 µM.

`CCCc1cc(C(N)=S)ccn1` had an IC50 above 46 µM.

In turn, `c1ccc(-n2cnnn2)cc1` displayed an IC50 above 46 µM.

`CO/N=C(\C(=O)N[C@@H]1C(=O)N2C(C(=O)O)=C(CSC(=O)c3ccco3)CS[C@H]12)c1csc(N)n1`: the IC50 is above 46 µM.

Turning to `O=C1CN=C(c2ccccc2)c2cc(Cl)ccc2N1CC1CC1`, the IC50 is above 46 µM.

`COc1ccc(CN(CCN(C)C)c2ccccn2)cc1` gave an IC50 above 46 µM.

`CCCCC(=O)O[C@]1(C(=O)CO)CC[C@H]2[C@@H]3CCC4=CC(=O)CC[C@]4(C)[C@H]3[C@@H](O)C[C@@]21C` gave an IC50 above 46 µM.

Consider `O=C(CCCN1CCC(C(=O)c2ccc(F)cc2)CC1)c1ccc(F)cc1`, for which the IC50 was above 46 µM.

Compound `CCCC(O)C(CC)CO` (stereo not drawn) yielded an IC50 above 46 µM.

Turning to `N=C1NCCC(C2NC(=O)/C(=C/NC(N)=O)NC(=O)C(CNC(=O)CC(N)CCCN)NC(=O)C(CO)NC(=O)C(N)CNC2=O)N1.O=S(=O)(O)O` (stereo not drawn), the IC50 was above 46 µM.

`O=C(CCCN1CCC(O)(c2ccc(Cl)cc2)CC1)c1ccc(F)cc1` gave a half-inhibitory concentration (IC50) above 46 µM.

The compound `O=[N+]([O-])O[C@@H]1CO[C@H]2[C@@H]1OC[C@@H]2O` gave an IC50 above 46 µM.
